Test results: patent US20050288347A1, “Certain triazole-based compounds, compositions, and uses thereof” (priority 2004, published 2005)
Entries after “also recorded” stand apart in the source; their conditions may differ.

These compounds were tested against protein kinase (assay: HTS ATP-utilizing enzyme assay, off-chip mobility-shift format (Caliper HTS 250)). Details: kinase(s) for which the compound exhibits protein kinase inhibitory activity; test compound 10 μM; active = greater than three-sigma from the mean activity of inactive compounds.
Assay type: biochemical, human
Description: The following procedures describe the reagent and plate preparation for a HTS of an ATP-utilizing enzyme, such as a protein kinase, run in an off-chip mobility-shift assay format. The following provides an HTS protocol for running a protein kinase HTS screen on a Caliper HTS 250 microfluidics system. The following parameters are dependent on the protein kinase used and can be determined by one skilled in the art as part of a typical assay development process. For example, the peptide substrate used can be identified from the current literature, by screening a peptide library of potential protein kinase substrates, or by other applicable means accepted in the field.
The following table provides typical screen assay parameters appropriate for a Caliper HTS 250 microfluidics system.
The reagents and buffers listed in the following table are generally applicable for developing and running an HTS screen on a human protein kinase using the Caliper HTS 250 system.
The following reagents were prepared using the previously described buffers.
A 2× Master Buffer solution was prepared by combining 200 mL of 1 M HEPES, pH 7.5, 2 mL of 10% Triton X-100, 20 mL of 10% BSA, and 778 mL of H2O.
Assays to determine the kinase inhibitory activity of chemical entities of the present disclosure were performed using a Caliper HTS 250 microfluidics device, Greiner U-bottom assay plates, a Multidrop for transfer of reagents, and Biomek FX (AMNCBM03) software. Initially, 2.4 μL of a 1 mM solution of a test compound in 100% DMSO was added to a well of the Greiner U-bottom plate. A single Greiner U-bottom plate having 24×16 wells could include multiple test compounds. […] Using the Biomek FX, 10 μL of 0.5 M EDTA was added by the span-8 to wells, indicated as 100% Control and 2.4 μL of 100% DMSO was added by the span-8 to wells, indicated as 0% Control. […] The total reaction volume in each well was 25 μL, and the concentration of the test compound was 10 μM. The assay plate was incubated for 2.5 hrs at 20° C. to 22° C. […] The inhibition of the ATP-utilizing enzyme, such as a particular protein kinase, was determined by measuring the ratio of the peptide substrate to phosphorylated product for each well of the assay plate using the Caliper HTS 250 system.
The use of three-sigma statistical limits represents a conservative method for declaring potential hits among targets. The three-sigma activity, as well as the mean population activity, can be different for each target enzyme.
With CCn1c(SCC(=O)N2CCc3ccccc3C2)nnc1-c1cc2ccccc2cc1O the Kinase was “DAPK1; also recorded: AURORA-A”.
With O=C(CSc1nnc(-c2ccc(O)cc2)n1Cc1ccco1)N1CCCc2ccccc21 the Kinase was “GSK3-β; also recorded: GSK3-α”.
For CCn1c(SCC(=O)N2CCCc3ccccc32)nnc1-c1cc2ccccc2cc1O, the Kinase was “CDK2-cyclinA; also recorded: AURORA-A; also recorded: DAPK1”.
With Cn1c(SCC(=O)N2CCCc3ccccc32)nnc1-c1cc2ccccc2cc1O the Kinase was “FYN and AURORA-A and DAPK1”.
With COc1ccc(OCc2nnc(SCC(=O)N3CCCc4ccccc43)n2-c2ccc(C)cc2)cc1 the Kinase was “LCK”.
With COCCCn1c(C)nnc1SCC(=O)Nc1ccccc1[N+](=O)[O-] the Kinase was “FYN”.
O=C(CSc1nnc(-c2ccncc2)n1-c1ccc(F)cc1)Nc1nccs1 was tested, and the Kinase was “GSK3-α; also recorded: GSK3-β; also recorded: CDK2-cyclinE”.
In the case of O=C(CSc1nnc(-c2ccncc2)n1-c1ccc(F)cc1)Nc1cccc(O)c1, the Kinase is reported as “AURORA-A”.
For O=C(CSc1nnc(-c2ccc(O)cc2)n1Cc1ccco1)Nc1nccs1, the Kinase was “GSK3-β and GSK3-α and MSK2”.
CC(Sc1nnc(-c2ccc(O)cc2)n1Cc1ccco1)C(=O)Nc1ccc([N+](=O)[O-])cc1 (stereo not drawn) was tested, and the Kinase was “LCK”.
With O=C(CSc1nnc(-c2ccc(O)cc2)n1Cc1ccco1)N1CCc2ccccc21 the Kinase was “AURORA-A”.
O=C(CSc1nnc(-c2ccncc2)n1Cc1ccco1)Nc1cccc(O)c1 was tested, and the Kinase was “GSK3-β and GSK3-α and AKT3”.
O=C(CSc1nnc(-c2ccccc2O)n1Cc1ccccc1)N(c1ccccc1)c1ccccc1 was tested, and the Kinase was “CDK2-cyclinA; also recorded: AURORA-A”.
In the case of O=C(CSc1nnc(-c2ccc(O)cc2)n1Cc1ccccc1)N1CCCCC1, the Kinase is reported as “GSK3-α; also recorded: GSK3-β”.
In the case of O=C(CSc1nnc(CNc2ccc(F)cc2)n1Cc1ccccc1)Nc1cccc(O)c1, the Kinase is reported as “CHEK2”.
For CCn1c(SCC(=O)N(C(C)C)C(C)C)nnc1-c1cc2ccccc2cc1O, the Kinase was “c-TAK1”.
For CCn1c(SCC(=O)Nc2nc3c(s2)CCCC3)nnc1-c1cc2ccccc2cc1O, the Kinase was “AURORA-A; also recorded: CDK2-cyclinE”.
With CCn1c(SCC(=O)Nc2nccs2)nnc1-c1ccc(S(=O)(=O)N2CCCC2)cc1 the Kinase was “GSK3-β; also recorded: GSK3-α”.
For CCn1c(SCC(=O)Nc2ccc(C)cc2)nnc1-c1ccc(O)cc1, the Kinase was “AURORA-A”.
In the case of Cn1c(SCC(=O)Nc2nccs2)nnc1-c1ccc(S(=O)(=O)N2CCOCC2)cc1, the Kinase is reported as “GSK3-α; also recorded: GSK3-β”.
In the case of Cc1ccc([N+](=O)[O-])cc1NC(=O)CSc1nnc(-c2ccc([N+](=O)[O-])cc2)n1C, the Kinase is reported as “PDGFRR-α”.
For Cc1ccc(NC(=O)CSc2nnc(CNc3cccc(C(F)(F)F)c3)n2-c2ccccc2)cc1, the Kinase was “MAPKAPK-2”.
For Cc1ccc(NC(=O)CSc2nnc(-c3ccccc3O)n2-c2ccc(C)cc2)cc1, the Kinase was “AURORA-A”.
For O=C(CSc1nnc(-c2ccccc2O)n1CCc1ccccc1)Nc1nnc(C(F)(F)F)s1, the Kinase was “AURORA-A”.
With CNC(=O)CSc1nnc(-c2cc3ccccc3cc2O)n1C the Kinase was “FYN”.
Cc1cc(NC(=O)CSc2nnc(-c3cc4ccccc4cc3O)n2C)no1 was tested, and the Kinase was “AURORA-A and FYN”.
Cn1c(SCC(=O)N2c3ccccc3Sc3ccccc32)nnc1-c1cc2ccccc2cc1O was tested, and the Kinase was “AURORA-A”.
With Cn1c(SCC(=O)Nc2nccs2)nnc1-c1cc2ccccc2cc1O the Kinase was “GSK3-β; also recorded: GSK3-α”.
With CCCOc1ccc(CNC(=O)CSc2nnc(-c3ccc(OC)c(OC)c3)n2C)cc1 the Kinase was “AURORA-A; also recorded: DYRK2”.
For COc1ccc(-c2nnc(SCC(=O)Nc3ccccc3O)n2-c2ccccc2)cc1OC, the Kinase was “AURORA-A”.
With COc1ccc(-c2nnc(SCC(=O)N3CCOCC3)n2-c2ccccc2)cc1OC the Kinase was “AKT1”.
CCn1c(SCC(=O)N2CCCC2)nnc1-c1ccc(S(=O)(=O)N2CCCCCC2)cc1 was tested, and the Kinase was “AURORA-A”.
CCN(CC)C(=O)CSc1nnc(-c2ccc(S(=O)(=O)N3CCCCCC3)cc2)n1CC was tested, and the Kinase was “AURORA-A”.
CCn1c(SCC(=O)Nc2cc(C)ccc2OC)nnc1-c1ccc(S(=O)(=O)N2CCCCCC2)cc1 was tested, and the Kinase was “DAPK1”.
Cn1c(SCC(=O)N2CCc3ccccc32)nnc1-c1ccc(N)cc1 was tested, and the Kinase was “MAPKAPK-2”.
In the case of COc1ccc(-n2c(SCC(N)=O)nnc2-c2ccc(O)cc2)cc1, the Kinase is reported as “GSK3-β; also recorded: GSK3-α”.
In the case of COc1ccc2nc(NC(=O)CSc3nnc(-c4ccc(O)cc4)n3CC3CCCO3)sc2c1 (stereo not drawn), the Kinase is reported as “GSK3-β; also recorded: PDGFRR-α; also recorded: GSK3-α”.
In the case of O=C(CSc1nnc(-c2ccc(O)cc2)n1CC1CCCO1)NCCc1ccccc1 (stereo not drawn), the Kinase is reported as “MSK1”.
In the case of Cn1c(SCC(=O)Nc2nc3c(s2)CCCC3)nnc1-c1ccc(O)cc1, the Kinase is reported as “GSK3-β; also recorded: GSK3-α; also recorded: CDK2-cyclinE”.
In the case of Cc1ccc([N+](=O)[O-])cc1NC(=O)CSc1nnc(-c2ccc(O)cc2)n1C, the Kinase is reported as “GSK3-β; also recorded: GSK3-α”.
For Cn1c(SCC(=O)N2CCOCC2)nnc1-c1ccc(O)cc1, the Kinase was “AURORA-A”.
Cc1ccc(NC(=O)C(C)Sc2nnc(-c3ccc(O)cc3)n2-c2ccccc2)cc1 (stereo not drawn) was tested, and the Kinase was “HCK”.
For Cc1ccc(NCc2nnc(SCC(N)=O)n2CC2CCCO2)cc1Cl (stereo not drawn), the Kinase was “AURORA-A”.
For CCOc1ccc(NCc2nnc(SCC(=O)N3CCN(C)CC3)n2-c2ccc(C)cc2)cc1, the Kinase was “FYN and AURORA-A”.
For Cc1ccc(NC(=O)CSc2nnc(CNc3ccc(F)cc3)n2CC2CCCO2)cc1 (stereo not drawn), the Kinase was “AURORA-A”.
With Cn1c(SCC(=O)Nc2cccc(O)c2)nnc1-c1ccco1 the Kinase was “CSK”.
CC1CCN(C(=O)CSc2nnc(Cc3ccccc3)n2-c2cccc(Cl)c2)CC1 was tested, and the Kinase was “LCK”.
In the case of COc1ccc(-n2c(Cc3ccccc3)nnc2SCC(=O)N2c3ccccc3Sc3ccccc32)cc1, the Kinase is reported as “SRC and LCK”.
In the case of O=C(CSc1nnc(Cc2ccccc2)n1C1CCCCC1)Nc1cccc(O)c1, the Kinase is reported as “AURORA-A”.
Sc1nnc(CCc2nc3ccccc3[nH]2)n1-c1cccc(Cl)c1 was tested, and the Kinase was “GSK3-α”.
CCOc1ccc(NCc2nnc(SCC(=O)Nc3cc(C(F)(F)F)ccc3Cl)n2-c2ccc(OC)cc2)cc1 was tested, and the Kinase was “PAK2 and AURORA-A and FYN”.
For COCCn1c(SCC(=O)Nc2ccccc2F)nnc1-c1cc2ccccc2cc1O, the Kinase was “AURORA-A”.
CCOc1cc(NC(=O)c2cccs2)c(OCC)cc1NC(=O)CSc1nnc(-c2ccc(O)cc2)n1C was tested, and the Kinase was “PDGFRR-α”.
With CCn1c(SCC(=O)Nc2sc3c(c2C#N)CCCC3)nnc1-c1ccc(O)cc1 the Kinase was “AURORA-A”.
With Cn1c(SCC(=O)Nc2sc3c(c2C#N)CCCC3)nnc1-c1ccc(O)cc1 the Kinase was “PRAK and CDK2-cyclinE and DYRK2”.
For Cn1c(SCC(=O)Nc2cccc(O)c2)nnc1-c1ccc(NS(C)(=O)=O)cc1, the Kinase was “AURORA-A”.
COc1ccc(CCNC(=O)CSc2nnc(-c3cc4ccccc4cc3O)n2C)cc1OC was tested, and the Kinase was “FYN”.
Cc1ccc(S(=O)(=O)Nc2ccc(-c3nnc(S)n3C)cc2)cc1 was tested, and the Kinase was “AURORA-A; also recorded: CDK2-cyclinA; also recorded: CHEK2”.
In the case of COc1ccc(-n2c(SC(C)C(=O)Nc3ccc(C(C)=O)cc3)nnc2-c2ccc(O)cc2)cc1 (stereo not drawn), the Kinase is reported as “GSK3-β; also recorded: GSK3-α”.
With CC(=O)c1ccc(NC(=O)CSc2nnc(C)n2-c2ccccc2)cc1 the Kinase was “AKT1”.
For CCOc1ccc(NC(=O)CSc2nnc(-c3ccc(O)cc3)n2-c2ccccc2)cc1, the Kinase was “HCK”.
With CCc1nnc(NC(=O)CSc2nnc(-c3cccc(C)c3)n2CC)s1 the Kinase was “LCK”.
In the case of COCCn1c(SCC(=O)Nc2ccc3c(c2)OCO3)nnc1-c1cc2ccccc2cc1O, the Kinase is reported as “AURORA-A”.
For O=C(CSc1nnc(-c2ccc(O)cc2)n1Cc1ccco1)NCc1ccc2c(c1)OCO2, the Kinase was “CDK2-cyclinA and CDK5 and CDK2-cyclinE”.
COCCn1c(SCC(=O)NCc2ccc3c(c2)OCO3)nnc1-c1cc2ccccc2cc1O was tested, and the Kinase was “AURORA-A”.
With COc1ccc(NCc2nnc(SCC(=O)NCc3ccco3)n2-c2ccccc2OC)cc1 the Kinase was “PDGFRR-α and FYN”.
For O=C(CSc1nnc(-c2ccc(O)cc2)n1-c1ccccc1)NCc1ccco1, the Kinase was “GSK3-β; also recorded: GSK3-α”.
In the case of CCOC(=O)c1sc(NC(=O)CSc2nnc(-c3ccc(OC)cc3)n2CCOC)nc1C, the Kinase is reported as “GSK3-β; also recorded: GSK3-α”.
CCOC(=O)c1sc(NC(=O)CSc2nnc(Cn3nnc4ccccc43)n2C)nc1C was tested, and the Kinase was “GSK3-β”.
With CCOC(=O)c1c(NC(=O)CSc2nnc(-c3ccccc3O)n2-c2ccc(C)cc2)sc(C(C)=O)c1C the Kinase was “LCK”.
CCOC(=O)c1c(NC(=O)CSc2nnc(CNc3ccc(OC)cc3)n2C)sc(C(C)=O)c1C was tested, and the Kinase was “AURORA-A and FYN and PDGFRR-α”.
COC(=O)c1ccccc1NC(=O)CSc1nnc(-c2ccccc2O)n1CCc1ccccc1 was tested, and the Kinase was “AURORA-A”.
In the case of COCCn1c(SCC(=O)Nc2ccccc2C(=O)OC)nnc1-c1cc2ccccc2cc1O, the Kinase is reported as “AURORA-A; also recorded: DAPK1”.
For COC(=O)c1ccccc1NC(=O)CSc1nnc(CNc2ccc(F)cc2)n1CC1CCCO1 (stereo not drawn), the Kinase was “AURORA-A”.
In the case of COC(=O)c1sc(NC(=O)CSc2nnc(-c3ccc(NS(C)(=O)=O)cc3)n2C)nc1C, the Kinase is reported as “GSK3-β; also recorded: GSK3-α”.
